Laboratory results from patent publication US11634443B2, “Treprostinil prodrugs” (United Therapeutics Corporation, priority 2019, dated 2023).
One block for each compound: values may come before it.

How the values were obtained:
[1] = Stability and formation of treprostinil in human cryopreserved hepatocytes
[2] = Stability and formation of treprostinil in rat cryopreserved hepatocytes
[3] = Stability and formation of treprostinil in dog cryopreserved hepatocytes
[4] = molecular target: T1, prostaglandin I2 (PGI2) receptor (IP) (Homo sapiens, UniProt P43119); assay: IP receptor cAMP assay (agonist mode); format: cell-based; settings: for Activity, IP Relative to Tre: relative to treprostinil EC50 values, image character = too high to realistically calculate
T1 construct: expressed in transfected cells; host or cells: CHO-K1
T1 sequence (P43119 whole entry): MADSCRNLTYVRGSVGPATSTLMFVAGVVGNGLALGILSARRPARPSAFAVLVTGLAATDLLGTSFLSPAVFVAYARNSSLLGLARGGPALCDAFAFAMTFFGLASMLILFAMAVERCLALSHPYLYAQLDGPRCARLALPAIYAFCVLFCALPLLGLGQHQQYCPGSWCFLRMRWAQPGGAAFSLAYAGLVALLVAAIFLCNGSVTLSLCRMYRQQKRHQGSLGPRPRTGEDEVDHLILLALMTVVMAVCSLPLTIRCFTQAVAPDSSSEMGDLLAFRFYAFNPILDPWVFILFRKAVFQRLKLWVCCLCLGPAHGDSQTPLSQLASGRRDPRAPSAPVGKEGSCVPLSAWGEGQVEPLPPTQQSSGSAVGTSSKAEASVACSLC

[5] = molecular target: T2, prostaglandin E2 (PGE2) receptor 2 (EP2) (Homo sapiens, UniProt P43116); assay: EP2 receptor cAMP assay (agonist mode); format: cell-based; settings: for Activity, EP2 Relative to Tre: Table 24, relative to treprostinil EC50 values, * partial agonists or ambiguous dose-response curves, image character = too high to realistically calculate
T2 construct: expressed in transfected cells; host or cells: HEK293T
T2 sequence (P43116 whole entry): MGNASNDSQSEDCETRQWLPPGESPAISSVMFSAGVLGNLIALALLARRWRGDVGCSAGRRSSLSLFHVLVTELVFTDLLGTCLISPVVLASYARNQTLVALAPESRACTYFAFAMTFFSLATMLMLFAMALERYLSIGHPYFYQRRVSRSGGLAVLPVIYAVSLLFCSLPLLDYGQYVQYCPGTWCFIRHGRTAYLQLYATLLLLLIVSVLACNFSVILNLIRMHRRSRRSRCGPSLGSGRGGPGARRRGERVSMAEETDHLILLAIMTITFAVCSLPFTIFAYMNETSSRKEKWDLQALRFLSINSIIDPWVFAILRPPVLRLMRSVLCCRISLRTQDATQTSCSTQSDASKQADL

[6] = molecular target: T3, prostaglandin D2 (PGD2) receptor 1 (DP1) (Homo sapiens, UniProt Q13258); assay: DP1 receptor cAMP assay (agonist mode); format: cell-based; settings: for Activity, DP1 Relative to Tre: relative to treprostinil EC50 values, * partial agonists or ambiguous dose-response curves
T3 construct: expressed in transfected cells; host or cells: HEK293T
T3 sequence (Q13258 1-359): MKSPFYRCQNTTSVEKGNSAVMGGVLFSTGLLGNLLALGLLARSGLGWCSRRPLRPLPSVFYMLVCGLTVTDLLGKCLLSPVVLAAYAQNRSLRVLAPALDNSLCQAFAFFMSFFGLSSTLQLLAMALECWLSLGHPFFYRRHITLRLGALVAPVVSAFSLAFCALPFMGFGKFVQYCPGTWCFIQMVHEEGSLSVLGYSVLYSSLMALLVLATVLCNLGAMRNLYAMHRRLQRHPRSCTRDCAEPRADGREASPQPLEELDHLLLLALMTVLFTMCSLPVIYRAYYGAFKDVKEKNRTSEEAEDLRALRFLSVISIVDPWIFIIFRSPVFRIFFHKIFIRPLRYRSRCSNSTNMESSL

PGE2 receptor 1 (EP1) = molecular target: T4, PGE2 receptor 1 (EP1) (Homo sapiens, UniProt P34995); assay: EP1 receptor calcium assay (agonist mode); format: cell-based; settings: Table 24; relative to treprostinil EC50 values; * partial agonists or ambiguous dose-response curves; image character = too high to realistically calculate
T4 construct: expressed in transfected cells; host or cells: HEK293T
T4 sequence (P34995 1-402): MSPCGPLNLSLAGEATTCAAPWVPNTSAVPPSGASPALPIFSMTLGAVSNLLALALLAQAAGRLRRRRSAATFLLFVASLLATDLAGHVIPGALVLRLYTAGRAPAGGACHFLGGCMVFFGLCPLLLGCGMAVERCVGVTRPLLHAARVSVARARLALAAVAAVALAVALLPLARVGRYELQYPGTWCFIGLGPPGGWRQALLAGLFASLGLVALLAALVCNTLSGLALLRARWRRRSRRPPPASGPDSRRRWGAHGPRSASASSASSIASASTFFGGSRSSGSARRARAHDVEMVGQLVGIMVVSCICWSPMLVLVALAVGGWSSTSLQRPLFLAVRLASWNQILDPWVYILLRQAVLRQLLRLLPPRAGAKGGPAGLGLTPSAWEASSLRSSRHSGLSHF
Description: Assay Buffer: • EP1 Calcium and DP1 cAMP Assays: HBSS plus 20 mM HEPES • EP2 and IP1 cAMP Assays: 1 mM IBMX in HBSS plus 20 mM HEPES
Cells were thawed from frozen cells and resuspended in assay buffer at desired concentrations. cAMP or Calcium assays were performed according to the manufacturer's protocol using Multiscreen™ TR-FRET cAMP 1.0 No Wash Assay Kit or Multiscreen™ Calcium 1.0 No Wash Kit.
Calcium Assay: Cells were seeded in a 384-well plate at an appropriate density. The calcium assay was conducted according to the manufacturer's protocols (Multiscreen Calcium 1.0 No Wash Assay Kit). The calcium dye loading buffer was added to the cells and incubated for 1 hour at 37° C. For agonist mode, cells were injected with Iloprost control agonist or test compound by FLIPR and calcium mobilization was monitored for 180 seconds with compound injected into the wells at the 19th second. Fluorescent emissions were read at 525 nm with excitation at 490 nm in a FLIPR 384 instrument (Molecular Devices).
Calcium Assay: Calcium assay results are expressed as “RFU” as defined in figure below. Data are represented in Mean±SEM. Dose-response curves were fitted using “Sigmoidal dose-response (variable slope)” function in GraphPad Prism 6. EC50 values were calculated based on the fitted curves.
Prostaglandin receptor activity assessments with treprostinil and treprostinil analogues have been conducted, and a historical, positive control agonist for these receptors, iloprost (for IP, EP2 and EP1) or PGD2 (for DP1), was also included. These studies used cell lines overexpressing either human IP, EP2 or DP1, or EP1 receptors, and following incubation with varying concentrations of compounds, cAMP levels were measured using Fluorescence Resonance Energy Transfer (FRET). The 665/620 (acceptor/donor emission signals) ratio is inversely proportional to the concentration of cAMP.

[7] = Measured solubility at pH 6.5; format: physicochemical
[8] = Plasma stability and formation of treprostinil, human plasma; format: in vitro ADME; settings: prodrug dosed at 1 μM
Description: (§1) Studies were carried out in mixed-gender human plasma male Sprague-Dawley rat plasma, and male Beagle dog plasma. All plasma was obtained from Bioreclamation and collected on K2EDTA. Plasma was adjusted to pH 7.4 prior to initiating the experiments. DMSO stocks were first prepared for the test articles. […] The vials were kept in a benchtop Thermomixer® for the duration of the experiment. […] Samples were stored at 4° C. until the end of the experiment. After the final time point was sampled, the plate was mixed and then centrifuged at 3000 rpm for 10 minutes.

[9] = Plasma stability and formation of treprostinil, rat plasma; format: in vitro ADME; settings: prodrug dosed at 1 μM
Description: as §1

[10] = Plasma stability and formation of treprostinil, dog plasma; format: in vitro ADME; settings: prodrug dosed at 1 μM
Description: as §1

[11] = Hydrolysis of treprostinil prodrugs to treprostinil at pH 6, 7 and 8 and 40 C; format: physicochemical
Source text: Tables 26, 27 and 28 present data for hydrolysis of selected treprostinil prodrugs at pH 6, 7 and 8, respectively, and 40 C.

[12] = Stability and formation of treprostinil in human subcutaneous skin homogenate; settings: pooled human skin homogenate, 1 μM
[13] = Table 24, * partial agonists or ambiguous dose-response curves
[14] = Table 24, image character = too high to realistically calculate

Compound: CCCCC[C@@H](CC[C@@H]1[C@H]2Cc3cccc(OCC(=O)O)c3C[C@H]2C[C@H]1O)OC(=O)CC [Prodrug LV, treprostinil side chain propionic ester]
Treprostinil Concentration, 0 min [1]: 0.113 µM
Treprostinil Concentration, 15 min [1]: 0.725 µM
Treprostinil Concentration, 30 min [1]: 0.654 µM
Treprostinil Concentration, 60 min [1]: 0.589 µM
Treprostinil Concentration, 120 min [1]: 0.527 µM
Treprostinil Concentration, 0 min [2]: 0.0159 µM
Treprostinil Concentration, 15 min [2]: 0.506 µM
Treprostinil Concentration, 30 min [2]: 0.48 µM
Treprostinil Concentration, 60 min [2]: 0.424 µM
Treprostinil Concentration, 120 min [2]: 0.391 µM
Treprostinil Concentration, 0 min [3]: 0.124 µM
Treprostinil Concentration, 15 min [3]: 0.781 µM
Treprostinil Concentration, 30 min [3]: 0.698 µM
Treprostinil Concentration, 60 min [3]: 0.599 µM
Treprostinil Concentration, 120 min [3]: 0.53 µM
Activity, IP Relative to Tre [4, 13]: 54x
Activity, EP2 Relative to Tre [5]: 50x
Activity, DP1 Relative to Tre [6, 14]: 94x
Activity, EP1 Relative to Tre (PGE2 receptor 1 (EP1)): 122x*

Compound: CCCCC[C@@H](CC[C@@H]1[C@H]2Cc3cccc(OCC(=O)O)c3C[C@H]2C[C@H]1O)OP(=O)(O)O [VI]
Measured Sol [7]: > 10 mg/mL

Compound: CCCCC[C@@H](CC[C@@H]1[C@H]2Cc3cccc(OCC(=O)O)c3C[C@H]2C[C@H]1O)OC(=O)OC(C)C [XVII]
Measured Sol [7]: 10 mg/mL

The remaining lines, values ahead:

Activity, IP Relative to Tre [4, 13]: 35x
Activity, EP2 Relative to Tre [5]: 11x
Activity, DP1 Relative to Tre [6, 14]: 18x
Activity, EP1 Relative to Tre (PGE2 receptor 1 (EP1)): 30x
Compound: CCCCC[C@H](O)CC[C@@H]1[C@H]2Cc3cccc(OCC(=O)OCC)c3C[C@H]2C[C@H]1O [Treprostinil ethyl ester]

Measured Sol [7]: 10 mg/mL
Compound: CCCCC[C@@H](CC[C@@H]1[C@H]2Cc3cccc(OCC(=O)O)c3C[C@H]2C[C@H]1O)OC(=O)OCC [XVI]

Formation of Treprostinil, Concentration ([8]; 0 min): 0 µM
Formation of Treprostinil, Concentration ([8]; 15 min): 0 µM
Formation of Treprostinil, Concentration ([8]; 30 min): 0 µM
Formation of Treprostinil, Concentration ([8]; 120 min): 0 µM
Formation of Treprostinil, Concentration [8]: 0 µM
Formation of Treprostinil, Concentration ([9]; 0 min): 0 µM
Formation of Treprostinil, Concentration ([9]; 60 mm): 0 µM
Formation of Treprostinil, Concentration ([9]; 15 min): 0 µM
Formation of Treprostinil, Concentration ([9]; 30 min): 0 µM
Formation of Treprostinil, Concentration ([9]; 120 min): 0 µM
Formation of Treprostinil, Concentration ([10]; 0 min): 0 µM
Formation of Treprostinil, Concentration ([10]; 15 min): 0 µM
Formation of Treprostinil, Concentration ([10]; 30 min): 0 µM
Formation of Treprostinil, Concentration ([10]; 120 min): 0 µM
Formation of Treprostinil, Concentration [10]: 0 µM
Treprostinil Concentration, 15 min [1]: 0.0163 µM
Treprostinil Concentration, 15 min [2]: 0.0097 µM
Treprostinil Concentration, 15 min [3]: 0.0506 µM
Activity, IP Relative to Tre [4, 13]: 208x
Activity, IP Relative to Tre ([4]; Table 25): 208x
Fold less active than treprostinil at the IP receptor ([4]; cAMP, cells overexpressing human IP): approximately 200 fold
Activity at the EP2 receptor compared to treprostinil ([5]; cAMP, cells overexpressing human EP2): inactive
Activity, DP1 Relative to Tre [6, 14]: 217x
Activity, DP1 Relative to Tre ([6]; Table 25): 217x
Activity at the DP1 receptor compared to treprostinil ([6]; cAMP, cells overexpressing human DP1): several hundred-fold less active
Hydrolysis of prodrug to treprostinil, % Area, t = 1 week ([11]; pH 6, 40 C): 0.00 % Area
Hydrolysis of prodrug to treprostinil, % Area, t = 2 weeks ([11]; pH 6, 40 C): 0.00 % Area
Hydrolysis of prodrug to treprostinil, % Area, t = 3 weeks ([11]; pH 6, 40 C): 0.00 % Area
Hydrolysis of prodrug to treprostinil, % Area, t = 1 week ([11]; pH 7, 40 C): 0.00 % Area
Hydrolysis of prodrug to treprostinil, % Area, t = 2 weeks ([11]; pH 7, 40 C): 0.00 % Area
Hydrolysis of prodrug to treprostinil, % Area, t = 3 weeks ([11]; pH 7, 40 C): 0.00 % Area
Hydrolysis of prodrug to treprostinil, % Area, t = 1 week ([11]; pH 8, 40 C): 0.00 % Area
Hydrolysis of prodrug to treprostinil, % Area, t = 2 weeks ([11]; pH 8, 40 C): 0.00 % Area
Hydrolysis of prodrug to treprostinil, % Area, t = 3 weeks ([11]; pH 8, 40 C): 0.00 % Area
Percent Remaining (Avg, n = 3) ([12]; 0 min): 100%
Percent Remaining (Avg, n = 3) ([12]; 30 min): 86.2%
Percent Remaining (Avg, n = 3) ([12]; 60 min): 71.2%
Percent Remaining (Avg, n = 3) ([12]; 120 min): 64.0%
Compound: treprostinil diphosphate [Prodrug LXXIII]
